Among the test systems are SF-295 CNS; SR leukemia; SW-620 colon; UACC-62 melanoma; SNB-19 CNS; NCI-H23 lung; MDA-N; SF-539 CNS; SK-MEL-28 melanoma; MDA-MB-435; TK-10 renal; RXF 393 renal; HCC-2998 colon; SNB-75 CNS.
What all share (assay): inhibition of tumour cell growth, NCI panel, 48 h

Results on eleven compounds are retold here after PubChem BioAssay (NCI).

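Protocol summary: plate cells (96-well), add compound at 5 concentrations, incubate 48 h, interpolate endpoints linearly. TGI: total growth inhibition.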

`COC(=O)c1ccc(S)c(S(=O)(=O)Nc2n[nH]c(N)n2)c1`: the TGI with SF-295 CNS, with SR leukemia, with SW-620 colon, in the test with UACC-62 melanoma, in the test with SNB-19 CNS and in the test on NCI-H23 lung was more than 100 µM throughout. In addition, the TGI in the test on MDA-N, with SF-539 CNS, with SK-MEL-28 melanoma, in the test with MDA-MB-435 and with TK-10 renal was more than 100 µM in each case.

On to `O=C(c1cccs1)N(C(=S)OCCOc1ccccc1)c1ccccc1`, for which the TGI in the test on SF-295 CNS is 71 µM; with SW-620 colon, 80 µM; with RXF 393 renal, 51.9 µM; in the test on UACC-62 melanoma, 37.7 µM; in the test with SNB-19 CNS, more than 100 µM; with NCI-H23 lung, 42.3 µM. The TGI is 33.4 µM with MDA-N; 58 µM in the test with SF-539 CNS; 55.9 µM with SK-MEL-28 melanoma; 59.4 µM in the test on HCC-2998 colon; 33.7 µM in the test on MDA-MB-435; more than 100 µM in the test with TK-10 renal. For the same compound, the TGI in the test on SNB-75 CNS worked out at 54.7 µM.

Take `Oc1ccc2cc(Br)ccc2c1-c1c(O)ccc2ccc(Br)cc12`: the TGI came to 30.6 µM with SF-295 CNS; 52.4 µM in the test on SR leukemia; 24.2 µM with SW-620 colon; 31 µM in the test with UACC-62 melanoma; 29.3 µM in the test on SNB-19 CNS; 29.1 µM with NCI-H23 lung. In addition, the TGI turned out to be 24.6 µM in the test on MDA-N; 34.8 µM with SF-539 CNS; 33.5 µM in the test with SK-MEL-28 melanoma; 19.5 µM in the test with HCC-2998 colon; 31.1 µM with MDA-MB-435; 31.2 µM in the test on TK-10 renal.

As to `COc1ccc(OC)c(CNc2ccc(C(=O)O)cc2)c1`, the TGI with SR leukemia, in the test on SW-620 colon, in the test with UACC-62 melanoma, in the test with SNB-19 CNS, in the test on NCI-H23 lung and in the test with MDA-N was more than 100 µM throughout. Moreover, the TGI in the test on SF-539 CNS, in the test with SK-MEL-28 melanoma, with HCC-2998 colon, in the test with MDA-MB-435, in the test with TK-10 renal and in the test with SNB-75 CNS was more than 100 µM each time.

Consider `COC(=O)C(CCSC)NC(=O)CNC(=O)CSc1nnc(COc2ccc(Cl)cc2)n1-c1ccccc1` (centres undefined), for which the TGI with SW-620 colon was 45.3 µM; in the test on RXF 393 renal, 35.9 µM; in the test on UACC-62 melanoma, 30.3 µM; in the test on SNB-19 CNS, more than 100 µM; in the test with NCI-H23 lung, 30.2 µM; in the test on MDA-N, 32.7 µM. Besides, the TGI amounted to 35 µM in the test with SF-539 CNS; 33.3 µM with SK-MEL-28 melanoma; 27 µM in the test with HCC-2998 colon; 37.9 µM in the test on MDA-MB-435; 31.4 µM in the test with TK-10 renal; 36.3 µM in the test with SNB-75 CNS.

On to `O=C(NC1CCN(Cc2ccccc2)CC1)c1ccc(I)cc1`, for which the TGI was more than 100 µM in the test with SF-295 CNS; more than 100 µM in the test with SR leukemia; more than 100 µM in the test with SW-620 colon; 85.7 µM with RXF 393 renal; more than 100 µM with UACC-62 melanoma; more than 100 µM in the test on SNB-19 CNS. Also, the TGI with NCI-H23 lung, in the test on MDA-N, in the test on SF-539 CNS, with SK-MEL-28 melanoma, in the test with MDA-MB-435 and in the test on TK-10 renal was more than 100 µM throughout.

With `CC(C)(C)C1=CC(C)(n2[nH]c(=O)n(-c3ccccc3)c2=O)C=C(C(C)(C)C)C1=O`, the TGI with SF-295 CNS, with SW-620 colon, with UACC-62 melanoma, with SNB-19 CNS, in the test with NCI-H23 lung and in the test on MDA-N was more than 100 µM each time. In addition, the TGI in the test with SF-539 CNS, in the test with SK-MEL-28 melanoma, in the test with HCC-2998 colon, in the test on MDA-MB-435, in the test with TK-10 renal and in the test with SNB-75 CNS was more than 100 µM each time.

Turning to `N#Cc1c2c(c(N)oc1=O)C(c1ccccc1)CC(=O)N2` (centres undefined), the TGI in the test with SF-295 CNS, with SW-620 colon, with RXF 393 renal, in the test on UACC-62 melanoma, with SNB-19 CNS and with NCI-H23 lung was more than 100 µM throughout. Besides, the TGI in the test with MDA-N, with SF-539 CNS, in the test on SK-MEL-28 melanoma, in the test on HCC-2998 colon, in the test with MDA-MB-435 and with TK-10 renal was more than 100 µM each time. Also, in the test on SNB-75 CNS, the TGI was more than 100 µM.

Take `Cc1ccc2nc(N/N=C/c3sccc3C)cc(C)c2c1`: the TGI in the test with SW-620 colon, in the test on RXF 393 renal, in the test on UACC-62 melanoma, in the test on SNB-19 CNS, with NCI-H23 lung and in the test with MDA-N was more than 100 µM in each case. Besides, the TGI in the test with SK-MEL-28 melanoma, in the test on HCC-2998 colon, in the test with MDA-MB-435, with TK-10 renal and with SNB-75 CNS was more than 100 µM each time.

With `O=[N+]([O-])/C(C(Cl)=C(Cl)Cl)=C(/Cl)SCc1ccccc1`, the TGI in the test on SF-295 CNS came to 69.1 µM; with SW-620 colon, 10.2 µM; with RXF 393 renal it was 9.35 µM; with UACC-62 melanoma it was 14.4 µM; in the test with SNB-19 CNS it was 43.2 µM; with NCI-H23 lung, 23 µM. Further, the TGI in the test with MDA-N stood at 4.23 µM; in the test on SF-539 CNS it was 32.3 µM; in the test with SK-MEL-28 melanoma, 20.8 µM; with HCC-2998 colon it was 43.5 µM; in the test on MDA-MB-435, 5.12 µM; in the test with TK-10 renal, 18.9 µM. Also, in the test on SNB-75 CNS, the TGI is 24.9 µM.

For `CC1(C)CNCC(C)(OCc2ccccc2)C(=O)NC(C)(C)CNCC(C)(OCc2ccccc2)C(=O)N1` (centres undefined), the TGI in the test on SF-295 CNS, in the test with SW-620 colon, in the test on RXF 393 renal, in the test on UACC-62 melanoma, with SNB-19 CNS and with NCI-H23 lung was more than 10 µM in each case. The TGI with MDA-N, with SF-539 CNS, with SK-MEL-28 melanoma, in the test on HCC-2998 colon, with MDA-MB-435 and in the test with TK-10 renal was more than 10 µM throughout. Further, the TGI in the test with SNB-75 CNS was more than 10 µM.
